In patent US9718808B2, “Inhibitors of the renal outer medullary potassium channel” (Merck Sharp & Dohme Corp., priority 2014, dated 2017):

Target: ROMK (Kir1.1) channel (Homo sapiens (Human), UniProt P48048)
Test: Thallium Flux Assay
Assay type: cell-based
Protocol: A Thallium Flux Assay was performed on each of the final product compounds of the Examples. This assay has been described previously; see, e.g., PCT Published Application WO 2013/062900.

Chain of ROMK (Kir1.1) channel (P48048 whole entry): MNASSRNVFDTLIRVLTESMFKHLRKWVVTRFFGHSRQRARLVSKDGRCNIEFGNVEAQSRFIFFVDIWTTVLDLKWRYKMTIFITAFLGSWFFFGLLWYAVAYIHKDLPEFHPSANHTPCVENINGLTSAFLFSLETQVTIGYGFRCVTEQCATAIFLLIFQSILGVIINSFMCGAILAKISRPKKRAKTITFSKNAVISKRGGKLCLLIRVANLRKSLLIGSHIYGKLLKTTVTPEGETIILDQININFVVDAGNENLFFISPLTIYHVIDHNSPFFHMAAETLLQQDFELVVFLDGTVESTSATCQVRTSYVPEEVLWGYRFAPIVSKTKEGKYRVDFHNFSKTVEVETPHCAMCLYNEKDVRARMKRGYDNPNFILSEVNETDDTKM

SMILES	IC50 [nM]
CC1=C(N2CC[C@]3(CC[C@H](NCc4ccc(-n5cnnn5)cc4)CC3)C2=O)COC1=O [Example 43, (5s,8s)-2-(4-methyl-5-oxo-2,5-dihydrofuran-3-yl)-8-{[4-(1H-tetrazol-1-yl)benzyl]amino}-2-azaspiro[4.5]decan-1-one]	49
CC1=C(N2CC[C@]3(CC[C@@H](NCc4ccc(-n5cnnn5)cc4)CC3)C2=O)COC1=O [Example 44, (5r,8r)-2-(4-methyl-5-oxo-2,5-dihydrofuran-3-yl)-8-{[4-(1H-tetrazol-1-yl)benzyl]amino}-2-azaspiro[4.5]decan-1-one]	3.1
CC1=C(N2CC[C@]3(CC[C@@H](NCc4ccc5c(c4)-c4nnnn4C5)CC3)C2=O)COC1=O [Example 47, (5r,8r)-2-(4-methyl-5-oxo-2,5-dihydrofuran-3-yl)-8-[(5H-tetrazolo[5,1-a]isoindol-8-ylmethyl)amino]-2-azaspiro[4.5]decan-1-one]	550
CC1=C(N2CC[C@]3(CC[C@@](C)(NCc4ccc(-n5cnnn5)nn4)CC3)C2=O)COC1=O [Example 48, (5r,8r)-8-methyl-2-(4-methyl-5-oxo-2,5-dihydrofuran-3-yl)-8-({[6-(1H-tetrazol-1-yl)pyridazin-3-yl]methyl}amino)-2-azaspiro[4.5]decan-1-one]	7.7
CC1C[C@]2(CC[C@@H](NCc3cnc(-n4cnnn4)cn3)CC2)C(=O)N1C1=CC(=O)OC1 (stereo partly shown) [Example 49, (5r,8r)-3-methyl-2-(5-oxo-2,5-dihydrofuran-3-yl)-8-({[5-(1H-tetrazol-1-yl)pyrazin-2-yl]methyl}amino)-2-azaspiro[4.5]decan-1-one]	240
CC1C[C@]2(CC[C@@H](NCc3cnc(-n4cnnn4)cn3)CC2)C(=O)N1C1=CC(=O)OC1 (stereo partly shown) [Example 50, (5r,8r)-3-methyl-2-(5-oxo-2,5-dihydrofuran-3-yl)-8-({[5-(1H-tetrazol-1-yl)pyrazin-2-yl]methyl}amino)-2-azaspiro[4.5]decan-1-one]	39
CC1=C(N2CC[C@]3(CC[C@@H](NCc4ccc5c(c4)CCc4nnnn4-5)CC3)C2=O)COC1=O [Example 51, (5r,8r)-8-(((4,5-dihydrotetrazolo[1,5-a]quinolin-7-yl)methyl)amino)-2-(4-methyl-5-oxo-2,5-dihydrofuran-3-yl)-2-azaspiro[4.5]decan-1-one]	4.3
CC1=C(N2CC[C@]3(CC[C@@H](NCc4cnc5c(c4)Cn4nnnc4-5)CC3)C2=O)COC1=O [Example 52, (5r,8r)-8-(((8H-tetrazolo[1′,5′:1,2]pyrrolo[3,4-b]pyridin-6-yl)methyl)amino)-2-(4-methyl-5-oxo-2,5-dihydrofuran-3-yl)-2-azaspiro[4.5]decan-1-one]	160
CC1=C(N2CC[C@]3(CC[C@@H](NCc4ccc5c(c4)C(C)n4nnnc4-5)CC3)C2=O)COC1=O (stereo partly shown) [Example 53, (5r,8r)-2-(4-methyl-5-oxo-2,5-dihydrofuran-3-yl)-8-(((5-methyl-5H-tetrazolo[5,1-a]isoindol-7-yl)methyl)amino)-2-azaspiro[4.5]decan-1-one]	19
CC1=C(N2CC[C@]3(CC[C@@H](NCc4ccc5c(c4C)Cn4nnnc4-5)CC3)C2=O)COC1=O [Example 54, (5r,8r)-2-(4-methyl-5-oxo-2,5-dihydrofuran-3-yl)-8-(((6-methyl-5H-tetrazolo[5,1-a]isoindol-7-yl)methyl)amino)-2-azaspiro[4.5]decan-1-one]	32
CC1=C(N2C(=O)[C@]3(CC[C@@H](NCc4ccc5c(c4)Cn4nnnc4-5)CC3)C[C@H]2C)COC1=O [Example 55, (3R,5s,8S)-8-(((5H-tetrazolo[5,1-a]isoindol-7-yl)methyl)amino)-3-methyl-2-(4-methyl-5-oxo-2,5-dihydrofuran-3-yl)-2-azaspiro[4.5]decan-1-one]	15
CC1=C(N2C(=O)[C@]3(CC[C@H](NCc4ccc5c(c4)Cn4nnnc4-5)CC3)C[C@@H]2C)COC1=O [Example 56, (3S,5r,8S)-8-(((5H-tetrazolo[5,1-a]isoindol-7-yl)methyl)amino)-3-methyl-2-(4-methyl-5-oxo-2,5-dihydrofuran-3-yl)-2-azaspiro[4.5]decan-1-one]	520
CC1=C(N2CC[C@]3(CC[C@@H](NCc4ccc5c(c4F)Cn4nnnc4-5)CC3)C2=O)COC1=O [Example 59, (5r,8r)-8-(((6-fluoro-5H-tetrazolo[5,1-a]isoindol-7-yl)methyl)amino)-2-(4-methyl-5-oxo-2,5-dihydrofuran-3-yl)-2-azaspiro[4.5]decan-1-one]	6
CC1=C(N2C(=O)[C@]3(CC[C@H](NCc4ccc5c(c4)Cn4nnnc4-5)CC3)C[C@H]2C)COC1=O [Example 60, (3R,5r,8R)-8-(((5H-tetrazolo[5,1-a]isoindol-7-yl)methyl)amino)-3-methyl-2-(4-methyl-5-oxo-2,5-dihydrofuran-3-yl)-2-azaspiro[4.5]decan-1-one]	650
CC1=C(N2CC[C@]3(CC[C@@H](NCc4cc5c(cc4C)-c4nnnn4C5)CC3)C2=O)COC1=O [Example 61, (5r,8r)-2-(4-methyl-5-oxo-2,5-dihydrofuran-3-yl)-8-(((8-methyl-5H-tetrazolo[5,1-a]isoindol-7-yl)methyl)amino)-2-azaspiro[4.5]decan-1-one]	23
C[C@H]1C[C@]2(CC[C@H](NCc3ccc4c(c3)Cn3nnnc3-4)CC2)C(=O)N1C1=CC(=O)OC1 [Example 62, (3S,5s,8R)-8-(((5H-tetrazolo[5,1-a]isoindol-7-yl)methyl)amino)-3-methyl-2-(5-oxo-2,5-dihydrofuran-3-yl)-2-azaspiro[4.5]decan-1-one]	20

SMILES	IC50 [nM]
C[C@H]1C[C@]2(CC[C@@H](NCc3ccc4c(c3)Cn3nnnc3-4)CC2)C(=O)N1C1=CC(=O)OC1 [Example 63, (3S,5r,8S)-8-(((5H-tetrazolo[5,1-a]isoindol-7-yl)methyl)amino)-3-methyl-2-(5-oxo-2,5-dihydrofuran-3-yl)-2-azaspiro[4.5]decan-1-one]	23
C[C@@H]1C[C@]2(CC[C@H](NCc3ccc4c(c3)Cn3nnnc3-4)CC2)C(=O)N1C1=CC(=O)OC1 [Example 65, (3R,5s,8S)-8-(((5H-tetrazolo[5,1-a]isoindol-7-yl)methyl)amino)-3-methyl-2-(5-oxo-2,5-dihydrofuran-3-yl)-2-azaspiro[4.5]decan-1-one]	19
C[C@H]1C[C@]2(CC[C@@H](NCc3cnc(-n4cnnn4)cn3)CC2)C(=O)N1C1=CC(=O)OC1 [Example 66, (3S,5r,8S)-8-(((5-(1H-tetrazol-1-yl)pyrazin-2-yl)methyl)amino)-3-methyl-2-(5-oxo-2,5-dihydrofuran-3-yl)-2-azaspiro[4.5]decan-1-one]	7
CC1=C(N2CC[C@]3(CC[C@](C)(NCc4cnc(-n5cnnn5)cn4)CC3)C2=O)COC1=O [Example 68, (5s,8s)-8-(((5-(1H-tetrazol-1-yl)pyrazin-2-yl)methyl)amino)-8-methyl-2-(4-methyl-5-oxo-2,5-dihydrofuran-3-yl)-2-azaspiro[4.5]decan-1-one]	140
CC1=C(N2CC[C@]3(CC[C@@](C)(NCc4cnc(-n5cnnn5)cn4)CC3)C2=O)COC1=O [Example 69, (5r,8r)-8-(((5-(1H-tetrazol-1-yl)pyrazin-2-yl)methyl)amino)-8-methyl-2-(4-methyl-5-oxo-2,5-dihydrofuran-3-yl)-2-azaspiro[4.5]decan-1-one]	15
O=C1C=C(N2CC[C@]3(CC[C@@H](NCc4cnc(-n5cnnn5)cn4)CC3)C2=O)CO1 [Example 72, (5r,8r)-8-(((5-(1H-tetrazol-1-yl)pyrazin-2-yl)methyl)amino)-2-(5-oxo-2,5-dihydrofuran-3-yl)-2-azaspiro[4.5]decan-1-one]	340
O=C1C=C(N2CC[C@]3(CC[C@H](NCc4cnc(-n5cnnn5)cn4)CC3)C2=O)CO1 [Example 73, (5s,8s)-8-(((5-(1H-tetrazol-1-yl)pyrazin-2-yl)methyl)amino)-2-(5-oxo-2,5-dihydrofuran-3-yl)-2-azaspiro[4.5]decan-1-one]	2000
CC1=C(N2CC[C@]3(CC[C@H](NCc4ccc(-n5ncnn5)nn4)CC3)C2=O)COC1=O [Example 74, (5s,8s)-8-(((6-(2H-tetrazol-2-yl)pyridazin-3-yl)methyl)amino)-2-(4-methyl-5-oxo-2,5-dihydrofuran-3-yl)-2-azaspiro[4.5]decan-1-one]	210
CC1=C(N2CC[C@]3(CC[C@@H](NCc4ccc(-n5ncnn5)nn4)CC3)C2=O)COC1=O [Example 75, (5r,8r)-8-(((6-(2H-tetrazol-2-yl)pyridazin-3-yl)methyl)amino)-2-(4-methyl-5-oxo-2,5-dihydrofuran-3-yl)-2-azaspiro[4.5]decan-1-one]	9.3
CC1=C(N2CC[C@]3(CC[C@H](N[C@H](CO)c4ccc(-n5cnnn5)nc4)CC3)C2=O)COC1=O [Example 77]	360
CC1=C(N2CC[C@]3(CC[C@@H](NC[C@H](O)c4ccc5c(c4C)COC5=O)CC3)C2=O)COC1=O [Example 78, (5r,8r)-8-(((R)-2-hydroxy-2-(4-methyl-1-oxo-1,3-dihydroisobenzofuran-5-yl)ethyl)amino)-2-(4-methyl-5-oxo-2,5-dihydrofuran-3-yl)-2-azaspiro[4.5]decan-1-one]	210
CC1=C(N2CC[C@]3(CC[C@H](NC[C@H](O)c4ccc5c(c4C)COC5=O)CC3)C2=O)COC1=O [Example 79, (5S,8s)-8-{[(2R)-2-hydroxy-2-(4-methyl-1-oxo-1,3-dihydro-2-benzofuran-5-yl)ethyl]amino}-2-(4-methyl-5-oxo-2,5-dihydrofuran-3-yl)-2-azaspiro[4.5]decan-1-one]	280
CC1=C(N2CC[C@]3(CC[C@@H](N(C)Cc4ccc(-n5cnnn5)nn4)CC3)C2=O)COC1=O [Example 80, (5r,8r)-2-(4-methyl-5-oxo-2,5-dihydrofuran-3-yl)-8-(methyl{[6-(1H-tetrazol-1-yl)pyridazin-3-yl]methyl}amino)-2-azaspiro[4.5]decan-1-one]	19
CC1=C(N2CC[C@]3(CC[C@H](N(C)Cc4ccc(-n5cnnn5)nc4)CC3)C2=O)COC1=O [Example 83]	28
CC1=C(N2CC[C@]3(CC[C@@H](N(C)Cc4ccc(-n5cnnn5)nc4)CC3)C2=O)COC1=O [Example 84]	740
